IC50 data for 27 compounds are collected here from patent US11932639B2, “Fused ring heteroaryl compounds as ALK4/5 inhibitors” (BiSiChem Co., Ltd., priority 2019, dated 2024).

Bounds are passed on as bounds.

The experiment deals with T1, ALK5 (Homo sapiens, UniProt P36897).
T1 construct: endogenous in cells; host or cells: Hs578T (ATCC HTB-22), inferred as the cells of the reporter assay
T1 sequence (P36897 34-503): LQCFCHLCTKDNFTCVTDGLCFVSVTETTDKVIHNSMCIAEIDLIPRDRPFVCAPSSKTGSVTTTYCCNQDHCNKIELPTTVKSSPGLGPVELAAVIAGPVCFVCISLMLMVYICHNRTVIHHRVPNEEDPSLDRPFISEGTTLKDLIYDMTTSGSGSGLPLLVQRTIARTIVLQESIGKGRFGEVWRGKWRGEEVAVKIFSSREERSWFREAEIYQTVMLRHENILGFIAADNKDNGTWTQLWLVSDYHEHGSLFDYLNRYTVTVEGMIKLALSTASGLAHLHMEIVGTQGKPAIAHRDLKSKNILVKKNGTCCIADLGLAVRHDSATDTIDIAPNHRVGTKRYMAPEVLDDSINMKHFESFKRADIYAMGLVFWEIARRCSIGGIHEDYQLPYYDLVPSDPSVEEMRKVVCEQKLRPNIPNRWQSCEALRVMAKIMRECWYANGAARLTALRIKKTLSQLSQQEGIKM
The experiment is described as follows: Cell-based luciferase reporter assay for ALK5 activity. As to conditions: (CAGA)-12-luciferase reporter, Smad 2/3-responsive promoter, 2 ng/ml TGF-β1 stimulation for 12 hours; read-out: Relative luciferase activity: IC50 value. As to the method: Human cancer cell lines Hs578T (ATCC® HTB-22™) cells were grown in DMEM (Dulbecco's modified Eagle's medium) supplemented with 10% fetal bovine serum and 1% mixture of penicillin and streptomycin (Gibco). Cells were maintained at 37° C. in a humidified 5% CO2 atmosphere.
Cell-Based Luciferase Reporter Assay for ALK5 Activity
Cells were seeded at 3×10^4/well in 24-well plates were transiently transfected with 500 ng of (CAGA)-12-luciferase reporter construct and 5 ng of pRL-TK Renilla luciferase vector (Promega, Madison, WI), an internal control for transfection efficiency, using Lipofectamine 3000 reagent (Thermo Fisher Scientific, Waltham, USA). After 24 h transfection, the cells were pre-treated with ALK5 inhibitor in dose-dependent manner. And then, Cells stimulated with 2 ng/ml recombinant TGF-β1 for 12 hours. After the stimulation, the firefly and Renilla luciferase activities were measured by Dual-Luciferase Repoter Assay (Promega).
Background: A reporter such as luciferase makes a cellular process visible.
Take `Cc1cccc(-c2[nH]c(CNc3cccc(Cl)c3F)nc2-c2ccn3nccc3c2)n1` [Example 1, 3-chloro-2-fluoro-N-((5-(6-methylpyridin-2-yl)-4-(pyrazolo[1,5-a]pyridin-5-yl)-1H-imidazol-2-yl)methyl)aniline]: the IC50 was in the range of 10 to 100 nM.

With `Cc1cccc(-c2[nH]c(CNc3ccc(Cl)c(Cl)c3)nc2-c2ccn3nccc3c2)n1` [Example 2, 3,4-dichloro-N-((5-(6-methylpyridin-2-yl)-4-(pyrazolo[1,5-a]pyridin-5-yl)-1H-imidazol-2-yl)methyl)aniline], the IC50 is under 10 nM.

With `Cc1cccc(-c2[nH]c(CNc3ccccc3F)nc2-c2ccn3ncnc3c2)n1` [Example 3, N-((4-([1,2,4]triazolo[1,5-a]pyridin-7-yl)-5-(6-methylpyridin-2-yl)-1H-imidazol-2-yl)methyl)-2-fluoroaniline], the IC50 lay within 10 to 100 nM.

Consider `Cc1cccc(-c2[nH]c(CNc3cccc(Cl)c3F)nc2-c2ccn3ncnc3c2)n1` [Example 4, N-((4-([1,2,4]triazolo[1,5-a]pyridin-7-yl)-5-(6-methylpyridin-2-yl)-1H-imidazol-2-yl)methyl)-3-chloro-2-fluoroaniline], for which the IC50 was under 10 nM.

Regarding `Cc1cccc(-c2[nH]c(CNc3ccc(Cl)c(Cl)c3)nc2-c2ccn3ncnc3c2)n1` [Example 5, N-((4-([1,2,4]triazolo[1,5-a]pyridin-7-yl)-5-(6-methylpyridin-2-yl)-1H-imidazol-2-yl)methyl)-3,4-dichloroaniline], the IC50 is under 10 nM.

Turning to `Cc1cccc(-c2[nH]c(NCc3ccccc3F)nc2-c2ccn3nccc3c2)n1` [Example 6, N-(2-fluorobenzyl)-5-(6-methylpyridin-2-yl)-4-(pyrazolo[1,5-a]pyridine-5-yl)-1H-imidazol-2-amine], the IC50 is 10 to 100 nM.

Turning to `Cc1cccc(-c2[nH]c(NCc3cccc(F)c3)nc2-c2ccn3nccc3c2)n1` [Example 7, N-(3-fluorobenzyl)-5-(6-methylpyridin-2-yl)-4-(pyrazolo[1,5-a]pyridine-5-yl)-1H-imidazol-2-amine], the IC50 lay within 10 to 100 nM.

In the case of `Cc1cccc(-c2[nH]c(NCc3cccc(Cl)c3F)nc2-c2ccn3nccc3c2)n1` [Example 8, N-(3-chloro-2-fluorobenzyl)-5-(6-methylpyridin-2-yl)-4-(pyrazolo[1,5-a]pyridin-5-yl)-1H-imidazol-2-amine], the IC50 is 10 to 100 nM.

Consider `Cc1cccc(-c2[nH]c(NCc3ccc(Cl)cc3F)nc2-c2ccn3nccc3c2)n1` [Example 9, N-(4-chloro-2-fluorobenzyl)-5-(6-methylpyridin-2-yl)-4-(pyrazolo[1,5-a]pyridin-5-yl)-1H-imidazol-2-amine], for which the IC50 was under 10 nM.

For the compound `Cc1cccc(-c2[nH]c(NCc3ccc(Cl)c(Cl)c3)nc2-c2ccn3nccc3c2)n1` [Example 10, N-(3,4-dichlorobenzyl)-5-(6-methylpyridin-2-yl)-4-(pyrazolo[1,5-a]pyridin-5-yl)-1H-imidazol-2-amine], the IC50 was 10 to 100 nM.

Turning to `Cc1cccc(-c2[nH]c(NCc3ccccc3F)nc2-c2ccn3ncnc3c2)n1` [Example 11, 4-([1,2,4]triazolo[1,5-a]pyridin-7-yl)-N-(2-fluorobenzyl)-5-(6-methylpyridin-2-yl)-1H-imidazol-2-amine], the IC50 was 10 to 100 nM.

As to `Cc1cccc(-c2[nH]c(NCc3cccc(F)c3)nc2-c2ccn3ncnc3c2)n1` [Example 12, 4-([1,2,4]triazolo[1,5-a]pyridin-7-yl)-N-(3-fluorobenzyl)-5-(6-methylpyridin-2-yl)-1H-imidazol-2ylamine], the IC50 lay in the range of 10 to 100 nM.

As for `Cc1cccc(-c2[nH]c(NCc3cccc(Cl)c3)nc2-c2ccn3ncnc3c2)n1` [Example 13, 4-([1,2,4]triazolo[1,5-a]pyridin-7-yl)-N-(3-chlorobenzyl)-5-(6-methylpyridin-2-yl)-1H-imidazol-2-amine], the IC50 was in the range of 10 to 100 nM.

Regarding `Cc1cccc(-c2[nH]c(NCc3ccc(Cl)cc3)nc2-c2ccn3ncnc3c2)n1` [Example 14, 4-([1,2,4]triazolo[1,5-a]pyridin-7-yl)-N-(4-chlorobenzyl)-5-(6-methylpyridin-2-yl)-1H-imidazol-2-amine], the IC50 was under 10 nM.

For the compound `Cc1cccc(-c2[nH]c(NCc3cccc(F)c3F)nc2-c2ccn3ncnc3c2)n1` [Example 15, 4-([1,2,4]triazolo[1,5-a]pyridin-7-yl)-N-(2,3-difluorobenzyl)-5-(6-methylpyridin-2-yl)-1-imidazol-2-ylamine], the IC50 was 10 to 100 nM.

Consider `Cc1cccc(-c2[nH]c(NCc3c(F)cccc3F)nc2-c2ccn3ncnc3c2)n1` [Example 16, 4-([1,2,4]triazolo[1,5-a]pyridin-7-yl)-N-(2,6-difluorobenzyl)-5-(6-methylpyridin-2-yl)-1H-imidazol-2-amine], for which the IC50 lay in the range of 10 to 100 nM.

For the compound `Cc1cccc(-c2[nH]c(NCc3ccc(Cl)cc3F)nc2-c2ccn3ncnc3c2)n1` [Example 17, 4-([1,2,4]triazolo[1,5-a]pyridin-7-yl)-N-(4-chloro-2-fluorobenzyl)-5-(6-methylpyridin-2-yl)-1H-imidazol-2-amine], the IC50 fell in the range of 10 to 100 nM.

For the compound `Cc1cccc(-c2[nH]c(NCc3cccc(Cl)c3F)nc2-c2ccn3ncnc3c2)n1` [Example 18, 4-([1,2,4]triazolo[1,5-a]pyridin-7-yl)-N-(3-chloro-2-fluorobenzyl)-5-(6-methylpyridin-2-yl)-1H-imidazol-2-amine], the IC50 is under 10 nM.

Turning to `Cc1cccc(-c2[nH]c(NCc3cc(Cl)ccc3F)nc2-c2ccn3ncnc3c2)n1` [Example 19, 4-([1,2,4]triazolo[1,5-a]pyridin-7-yl)-N-(5-chloro-2-fluorobenzyl)-5-(6-methylpyridin-2-yl)-1H-imidazol-2-amine], the half-maximal inhibitory concentration (IC50) was in the range of 10 to 100 nM.

In the case of `Cc1cccc(-c2[nH]c(NCc3ccc(Cl)c(Cl)c3)nc2-c2ccn3ncnc3c2)n1` [Example 20, 4-([1,2,4]triazolo[1,5-a]pyridin-7-yl)-N-(3,4-dichlorobenzyl)-5-(6-methylpyridin-2-yl)-1H-imidazol-2-amine], the IC50 was under 10 nM.

`Cc1cccc(-c2[nH]c(NCc3ccc(Cl)cc3Cl)nc2-c2ccn3ncnc3c2)n1` [Example 21, 4-([1,2,4]triazolo[1,5-a]pyridin-7-yl)-N-(2,4-dichlorobenzyl)-5-(6-methylpyridin-2-yl)-1H-imidazol-2-amine]: the IC50 is 10 to 100 nM.

As to `COc1cccc(CNc2nc(-c3ccn4ncnc4c3)c(-c3cccc(C)n3)[nH]2)c1F` [Example 22, 4-([1,2,4]triazolo[1,5-a]pyridin-7-yl)-N-(2-fluoro-3-methoxybenzyl)-5-(6-methylpyridin-2-yl)-1H-imidazol-2-amine], the IC50 lay in the range of 10 to 100 nM.

For the compound `COc1ccc(CNc2nc(-c3ccn4ncnc4c3)c(-c3cccc(C)n3)[nH]2)c(F)c1` [Example 23, 4-([1,2,4]triazolo[1,5-a]pyridin-7-yl)-N-(2-fluoro-4-methoxybenzyl)-5-(6-methylpyridin-2-yl)-1H-imidazol-2-amine], the IC50 lay in the range of 10 to 100 nM.

Regarding `CNC(=O)c1cccc(CNc2nc(-c3ccn4ncnc4c3)c(-c3cccc(C)n3)[nH]2)c1` [Example 24, 3-((4-([1,2,4]triazolo[1,5-a]pyridin-7-yl)-5-(6-methylpyridin-2-yl)-1H-imidazol-2ylamino)methyl)-N-methylbenzamide], the IC50 was over 100 nM.

Consider `CNC(=O)c1ccc(CNc2nc(-c3ccn4ncnc4c3)c(-c3cccc(C)n3)[nH]2)cc1` [Example 25, 4-((4-([1,2,4]triazolo[1,5-a]pyridin-7-yl)-5-(6-methylpyridin-2-yl)-1H-imidazol-2-ylamino)methyl)-N-methylbenzamide], for which the IC50 is over 100 nM.

`Cc1cccc(-c2[nH]c(NC(=O)c3ccccc3F)nc2-c2ccn3ncnc3c2)n1` [Example 26, N-(4-([1,2,4]triazolo[1,5-a]pyridin-7-yl)-5-(6-methylpyridin-2-yl)-1H-imidazol-2-yl)-2-fluorobenzamide]: the IC50 fell in the range of 10 to 100 nM.

As for `Cc1cccc(-c2[nH]c(NC(C)c3ccccc3F)nc2-c2ccn3ncnc3c2)n1` (stereo not drawn) [Example 27, 4-([1,2,4]tiazolo[1,5-a]pyridin-7-yl)-N-(1-(2-fluorophenyl)ethyl)-5-(6-methylpyridin-2-yl)-1H-imidazol-2-amine], the IC50 was in the range of 10 to 100 nM.

What is called IC50 is the concentration that gives 50% inhibition.
